Results as given in PubChem BioAssay (NCI).
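Compound exposure: 48 hours, 5 concentrations, 96-well plates. At the TGI there is no net growth.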

What was measured:
Experiment in all cases: growth of human tumour cells (NCI), 48 h
SK-MEL-28 melanoma = tested on: SK-MEL-28 melanoma
RXF 393 renal = tested on: RXF 393 renal
BT-549 breast = tested on: BT-549 breast
OVCAR-5 ovarian = tested on: OVCAR-5 ovarian
PC-3 prostate = tested on: PC-3 prostate
786-0 renal = tested on: 786-0 renal
HS 578T breast = tested on: HS 578T breast
MDA-MB-435 = tested on: MDA-MB-435
HOP-92 NSCLC = tested on: HOP-92 NSCLC
MOLT-4 leukemia = tested on: MOLT-4 leukemia
KM12 colon = tested on: KM12 colon
DU-145 prostate = tested on: DU-145 prostate
MCF7 breast = tested on: MCF7 breast

SMILES | TGI (SK-MEL-28 melanoma) [µM] | TGI (RXF 393 renal) [µM] | TGI (BT-549 breast) [µM] | TGI (OVCAR-5 ovarian) [µM] | TGI (PC-3 prostate) [µM] | TGI (786-0 renal) [µM] | TGI (HS 578T breast) [µM] | TGI (MDA-MB-435) [µM] | TGI (HOP-92 NSCLC) [µM] | TGI (MOLT-4 leukemia) [µM] | TGI (KM12 colon) [µM] | TGI (DU-145 prostate) [µM] | TGI (MCF7 breast) [µM]
c1ccc2c(OCC3CO3)ccc(OCC3CO3)c2c1 (stereo not drawn) | 21.5 | 7.71 | 18.8 | 23.3 | 17.1 | 5.57 | 9.73 | 7.74 | 18.4 | 2.99 | 16.1 | 5.47 | 4.66
OC1OC(c2ccc[nH]2)C(F)(F)C(F)(F)C1(F)F (stereo not drawn) | > 100 | > 100 | > 100 | > 100 | > 100 | > 100 | > 100 | > 100 | > 100 | > 100 | > 100 | > 100 | > 100
O=C(O)c1ccccc1C(=O)OCC1CCCN2CCCCC12 (stereo not drawn) | > 100 | > 100 | > 100 | > 100 | > 100 | > 100 | > 100 | > 100 | > 100 | > 100 | > 100 | > 100 | > 100
CC(C)[Si](OCC/C=C/C1CCC(=O)C1C(O)C1CCCCC1)(C(C)C)C(C)C (stereo not drawn) | 29 | 26.4 | 34.1 | 33.4 | 31.5 | 29.3 | 36.5 | 34.5 | 27.7 | 30 | 30 | 32 | 34.2
CCN(CC)CCN1CCN=c2c3cc(OC)ccc3n3cnc4ccc1c2c43 | 3.51 | 1.52 | 3.26 | 5.77 | 1.63 | 1.72 | 4.71 | 1.92 | 4.42 | 0.999 | 2.45 | 4.39 | 0.847
COc1ccc2c(c1)-c1c(c3ccccc3n1CCN1CCCCC1)CC2 | 99.2 | > 100 | > 71 | > 57.2 | > 87.7 | 41.9 | > 65.7 | 73.2 | 54.4 | 47.4 | > 56.9 | > 100 | > 80.8
COc1ccccc1NC(=S)Nc1cccc(C)n1 | > 100 | > 100 | > 100 | > 100 | > 100 | > 100 | > 100 | > 100 |  | > 100 | > 100 | > 100 | > 100
c1ccc2c(c1)n1c(N3CCOCC3)[n+]3ccccc3c1c1c3cccc[n+]3c(N3CCOCC3)n21 | > 100 | > 100 | > 100 | > 100 | > 100 | > 100 | > 100 | > 100 | > 100 | > 100 | > 100 | > 100 | > 100
CCCOc1ccc(/C=C/C2=[N+](CCO)CCO2)cc1 | > 100 | > 100 | > 100 | > 100 | > 100 | > 100 | > 100 | > 100 | > 100 | > 100 | > 100 | > 100 | > 100
CC(=O)NNc1nc(C)c(C(/C=C/c2ccccc2O)=N/NC(=O)c2ccncc2)s1 | > 100 | > 100 | > 100 | > 100 | > 100 | > 100 | > 100 | > 100 | > 100 | > 100 | > 100 | > 100 | > 100
C#CCOC(=O)C(N)CS (stereo not drawn) | > 100 | > 100 | > 100 | > 100 | > 100 | > 100 | > 100 | > 100 | > 100 | > 100 | > 100 | > 100 | > 100
NC(=Nc1ccc(Cl)c(Cl)c1)c1ccccc1N | 52.2 | 75.9 | > 100 | > 100 | 92.4 | > 100 | 50 | 42.2 | 8.47 | 69.3 | > 100 | > 100 | > 100
CCC/C(Cl)=N\OC(=O)Nc1ccc(Br)cc1 | 32.5 | 31 | 62.6 | 27.8 | 28.4 | 18.5 | 66.6 | 28.7 | 9.17 | 6.07 | 16.2 | 27.2 | 19.7
O=C(n1[nH]c(=O)n(-c2ccc([N+](=O)[O-])cc2)c1=O)C(Cl)(Cl)Cl | > 75 | > 75 | > 75 | > 75 | > 75 | > 75 | > 75 | > 75 |  | > 75 | > 75 | > 75 | > 75
Cc1ccc2nc(CN3CCCCC3)cc(=O)n2c1 | > 100 |  | > 100 | > 100 | > 100 | > 100 | > 100 | > 100 | > 100 | > 100 | > 100 | > 100 | > 100
COc1ccc2cc(CNCCCN3CCN(CCCNCc4ccc5cc(OC)ccc5c4)CC3)ccc2c1 | 3.09 | 2.85 | 3.26 | 2.6 | 2.36 | 2.88 | 3.32 | 2.99 | 2.82 | 5.72 | 2.14 | 2.88 | 2.85
CC1=C(C#N)C(=O)N(/N=C/c2ccc(Cl)cc2)C(=O)/C1=c1\o/c(=C2/C(=O)N(/N=C/c3ccc(Cl)cc3)C(=O)C(C#N)=C2C)c2nccnc12 | > 100 | > 100 | > 100 | > 100 | > 100 | > 100 | > 100 | > 100 | > 100 | > 100 | > 100 | > 100 | > 100
